Measured values taken from patent US20230121313A1 (priority 2019, published 2023).

What was measured:
[1] = system: subjects with MDD at imminent risk for suicide; conditions: human, in vivo, other: intranasal, 84 mg
Experimental: The CADSS was measured prior to the start of each dose, at 40 minutes, 2 hours, and 4 hours postdose.

[2] = system: patients with treatment-resistant depression (TRD); assay: BPRS positive symptom subscale, phase 2 dose-response study in TRD; type: in vivo, human
Experimental: Adverse events were monitored throughout the study. Other safety assessments (i.e., laboratory tests, vital signs, physical examination) were performed at pre-specified time points. Vital signs, the Clinician Administered Dissociative States Scale (CADSS; Bremner, “Measurement of dissociative states with the clinician-administered dissociative states scale (CADSS)”, J. Traumatic Stress, 1998, 11(1):125-136), and the 4-item positive symptom subscale from the Brief Psychiatric Rating Scale (BPRS; Overall, “The Brief Psychiatric Rating Scale. Psychological Reports”, 1962, 10:799-812) were assessed pre-dose, at 40 minutes, and 2 hours post-dose.

[3] = system: patients with treatment-resistant depression (TRD); assay: GAD-7, phase 2 dose-response study in TRD; type: in vivo, human
Experimental: Overall illness severity was assessed on the Clinical Global Impression of Severity (CGI-S) scale (Guy, “ECDEU Assessment Manual for Psychopharmacology-Revised (DHEW Publ No ADM 76-338)”, Rockville, Md.: U.S. Department of Health, Education, and Welfare, Public Health Service, Alcohol, Drug Abuse, and Mental Health Administration, NIMH Psychopharmacology Research Branch, Division of Extramural Research Programs; 1976, pp 218-222). Participants assessed their severity of anxiety on the Generalized Anxiety Disorder 7-item (GADS-7) Scale (See, Tables 157 and 158). See, Spitzer, “A brief measure for assessing generalized anxiety disorder—the GAD-7”, Arch. Intern. Med., 2006, 166(10):1092-1097.

glutamate NMDA receptor = conditions: cited from earlier work

## CN[C@]1(c2ccccc2Cl)CCCCC1=O [esketamine, (S)-2-(2-chlorophenyl)-2-(methylamino)cyclohexanone]
[1]
  CADSS dissociative and perceptual change symptoms resolved by (postdose): ≤ 2 h
[2]
  Symptoms suggestive of psychosis (BPRS-positive assessment): No participant manifested symptoms suggestive of psychosis
[3]; Period 1, 28 mg
  GAD-7 LS mean difference from placebo (SE): −0.21 (1.461)
  GAD-7 change from baseline to end point, LS mean (SE): −1.5 (1.34)
[3]; Period 1, 56 mg
  GAD-7 LS mean difference from placebo (SE): −1.40 (1.478)
  GAD-7 change from baseline to end point, LS mean (SE): −3.1 (1.34)
[3]; Period 1, 84 mg
  GAD-7 LS mean difference from placebo (SE): −3.44 (1.414)
  GAD-7 change from baseline to end point, LS mean (SE): −5.1 (1.30)
[3]; Period 2, 28 mg
  GAD-7 LS mean difference from placebo (SE): −2.02 (1.089)
  GAD-7 change from baseline to end point, LS mean (SE): −1.6 (0.87)
[3]; Period 2, 56 mg
  GAD-7 LS mean difference from placebo (SE): 0.60 (1.033)
  GAD-7 change from baseline to end point, LS mean (SE): 1.0 (0.98)
[3]; Period 2, 84 mg
  GAD-7 LS mean difference from placebo (SE): −1.25 (1.205)
  GAD-7 change from baseline to end point, LS mean (SE): −0.9 (1.02)
Glutamate NMDA receptor
  Affinity for the glutamate NMDA receptor in vitro relative to R-ketamine: 3 to 4 fold
